Measurements taken from publication PMC5696560 (Bioorganic & Medicinal Chemistry Letters, 2017).

Target: hERG channel (Homo sapiens, UniProt Q12809)
Assay: Inhibition of the hERG channel
Type: biochemical
Settings: for IC50: studies conducted by Wuxi AppTec

Chain of hERG channel (Q12809 whole entry): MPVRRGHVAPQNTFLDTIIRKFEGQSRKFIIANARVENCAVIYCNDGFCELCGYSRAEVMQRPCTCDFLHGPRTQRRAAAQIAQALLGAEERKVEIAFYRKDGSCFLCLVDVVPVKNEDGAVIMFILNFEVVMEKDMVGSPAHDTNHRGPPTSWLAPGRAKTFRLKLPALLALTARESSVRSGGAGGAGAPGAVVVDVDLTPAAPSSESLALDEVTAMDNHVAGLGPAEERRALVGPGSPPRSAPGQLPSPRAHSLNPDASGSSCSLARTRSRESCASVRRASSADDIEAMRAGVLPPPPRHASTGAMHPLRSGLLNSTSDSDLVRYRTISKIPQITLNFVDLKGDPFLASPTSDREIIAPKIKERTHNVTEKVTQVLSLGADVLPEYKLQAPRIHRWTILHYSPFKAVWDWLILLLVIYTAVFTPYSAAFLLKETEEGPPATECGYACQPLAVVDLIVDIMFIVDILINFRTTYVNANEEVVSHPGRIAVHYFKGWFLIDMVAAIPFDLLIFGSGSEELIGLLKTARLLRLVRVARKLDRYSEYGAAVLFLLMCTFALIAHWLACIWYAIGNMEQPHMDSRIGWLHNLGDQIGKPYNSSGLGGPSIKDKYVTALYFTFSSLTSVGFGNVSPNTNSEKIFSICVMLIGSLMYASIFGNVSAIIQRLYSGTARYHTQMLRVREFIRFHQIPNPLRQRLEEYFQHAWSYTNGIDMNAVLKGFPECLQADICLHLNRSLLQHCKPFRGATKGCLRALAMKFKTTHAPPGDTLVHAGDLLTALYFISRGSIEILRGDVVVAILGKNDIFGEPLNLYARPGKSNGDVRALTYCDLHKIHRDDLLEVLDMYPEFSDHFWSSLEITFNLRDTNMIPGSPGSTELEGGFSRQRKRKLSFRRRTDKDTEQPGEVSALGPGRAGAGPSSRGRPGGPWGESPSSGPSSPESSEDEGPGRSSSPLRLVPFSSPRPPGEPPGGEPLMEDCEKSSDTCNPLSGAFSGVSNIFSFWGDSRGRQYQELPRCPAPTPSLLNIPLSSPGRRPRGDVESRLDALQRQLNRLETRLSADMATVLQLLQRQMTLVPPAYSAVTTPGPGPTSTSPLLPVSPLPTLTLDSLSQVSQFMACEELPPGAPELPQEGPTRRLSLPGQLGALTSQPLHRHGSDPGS

Structure (SMILES) | IC50 [nM] | improvement in hERG IC50 relative to 1 (versus compound 1) [fold]
COc1nc2ccc(Br)cc2cc1[C@@H](c1cc(C)c(C)s1)[C@@](O)(CCN(C)C)c1cccc(F)c1 [Compound 9] | 880 | 
COc1nc2ccc(Br)cc2cc1[C@@H](c1ccnc(OC)c1OC)[C@@](O)(CCN(C)C)c1cccc(C)c1 [Compound 45] | 530 | 
COc1cc([C@H](c2cc3cc(Br)ccc3nc2OC)[C@@](O)(CCN(C)C)c2cccc(F)c2)cnc1OC [Compound 43] | 1900 | 5
